According to ChEMBL document CHEMBL3804816 (Medchemcomm, 2016):
The source made the active and inactive calls. No cut-off for these calls is given here.

What was measured:
Format in all cases: cell-based
[1] = tested on: IMR-32; assay: Agonist activity at GABA type-A receptor in human IMR32 cells at 1 mM after 2 hrs by Epic DMR assay
[2] = tested on: IMR-32; assay: Agonist activity at GABA type-A receptor in human IMR32 cells at 100 uM after 2 hrs by Epic DMR assay
[3] = Antagonist activity against GABA type-A receptor in human IMR32 cells assessed as GABA-induced response preincubated for 10 mins followed by GABA addition measured at 140 mins by Epic DMR assay
[4] = Agonist activity at GABA type-A receptor in human IMR32 cells after 2 hrs by Epic DMR assay; settings: IMR-32, 2 h

Question: Which Activity [1] does the source give for `Oc1noc2c1CCNC2` here?
Answer: Active

Question: For `NCC(CC(=O)O)c1ccc(Cl)cc1` (racemic), which Activity [2] is on record?
Answer: inactive

Question: Which IC50 ([3]; IMR-32, read-out: IC50) does the source give for `COc1ccc(-c2ccc(=N)n(CCCC(=O)O)n2)cc1` [GABAZINE] here?
Answer: 7.38 µM

Question: What about the IC50 ([3]; IMR-32, read-out: pIC50 (converted)) of the same molecule?
Answer: 4.57 µM

Question: With `NCc1cc(O)no1` [MUSCIMOL] as the molecule, how does the Activity [1] read?
Answer: Active

Question: And the EC50 ([4]; read-out: EC50)?
Answer: 2.04 µM

Question: What about the EC50 ([4]; read-out: pEC50 (converted)) of the same molecule?
Answer: 1.7 µM
